Source: PMC9605497, “Potential of Epidermal Growth Factor-like Peptide from the Sea Cucumber Stichopus horrens to Increase the Growth of Human Cells: In Silico Molecular Docking Approach” (Marine Drugs, 2022)
Where “and” joins values, the source holds several entries; their conditions need not be identical. Equal entries are not always repeated. Entries after “also recorded” stand apart in the source; their conditions may differ.

Key:
[1] = tested on: human melanoma cells (CRL-1872); assay: Cell morphology observation; assay type: cell-based
Procedure: Human melanoma cells (CRL-1872) were purchased from ATCC, Rocksville, MD, USA. Cells were cultured in a complete growth medium, which consisted of Minimum Essential Medium (MEM) (Gibco, Waltham, MA, USA) supplemented with 10% fetal bovine serum (FBS) (Invitrogen, Waltham, MA, USA) and 1% antibiotic–antimycotic (Invitrogen, Waltham, MA, USA), in a humidified incubator at 37 °C, equilibrated with 5% CO2. Cells were subcultured every two days until reaching confluency in T25 flask (TPP, Trasadingen, Switzerland) before being seeded in designated plates for specific experiment objectives.
Cells were seeded at 80,000 cells per well in a 24-well plate containing 400 µL of complete growth medium. After 24 h of culture, the medium was removed, washed once with PBS, replaced with serum-free medium and left to culture for another 16 h. The medium was removed and replaced with corresponding treatment medium, each in triplicates; 10 nM and 50 nM of Sh-EGFl-1, 10 nM and 50 nM of rhEGF were used as a positive control and serum-free medium was used as a negative control. Cells were cultured in a single plate to track their growth every 24 h during the four days of experiment. […] A crossed line was made at the bottom of each well to mark the four cell-counting areas that were recorded daily using a microscope digital camera. Cells were counted manually based on the images visualized using ImageJ version 2.0.

human EGFR = assay: Ligand binding assay with biotinylated peptide (NeutrAvidin-HRP/ABTS, 405 nm); details: for Relative binding: melanoma cells, 1 h at 37 °C, (OD x nM - OD 0 nM)/OD 0 nM at 405 nm, triplicates; for optimum concentration for binding to EGFR: concentrations tested 10, 50 and 500 nM
Procedure: An experiment was performed to test the ability of Sh-EGFl-1 peptide interaction with human receptor. Ligand binding assay, adapted from King et al. was performed with modifications using human cells. Both Sh-EGFl-1 and rhEGF were first conjugated with N-hydroxysuccinimidobiotin (NHS-biotin) and were added to human cells. Any binding of peptide to EGFR was detected through the reaction of NeutrAvidin conjugated with horseradish peroxidase enzyme and 2,2′-azino-bis-3-ethylbenzothiazoline-6-sulfonic acid (ABTS) as substrate.
A short peptide sequence derived from the protein translation of Contig 498513, was submitted to order. The 4.9 kDa Sh-EGFl-1 peptide (H-NINECFSSPCENQGICQDEIDGYNCVCQPGFTGTHCESSMLNHVI-OH) was synthesized by Mimotopes Pty. Ltd., Australia through a Fmoc solid-phase peptide chemistry method. A master stock concentration of 1 mg/mL was prepared by diluting lyophilized peptide with PBS buffer pH 7.4. Recombinant human EGF (rhEGF) (H-MNSDSECPLSHDGYCLHDGVCMYIEALDKYACNCVVGYIGERCQYRDLKWWELR-OH) was purchased from Thermo Scientific. For the cell proliferation assay and morphology observation experiments, peptides were added fresh into the serum-free growth medium to concentrations of 10 nM and 50 nM. For the binding affinity assay experiment, biotinylation of Sh-EGFl-1 and rhEGF peptides with NHS–biotin (Sigma Aldrich, Burlington, MA, USA) was performed according to the manufacturer’s instructions. The diluted peptides in PBS pH 7.4 were changed into carbonate buffer 0.1 M carbonate buffer pH 9.5 (0.07 M sodium bicarbonate, 0.03 M sodium carbonate) for an optimal biotinylation environment. A 10 X volume of cold acetone was added to the peptides and vortexed for 15 s. The mixture was incubated for 30 min at −20 °C before being centrifuged at 16,100× g for 24 min at 4 °C. The supernatant was discarded and the pellet was air-dried and fully dissolved in carbonate buffer pH 9.5. A total of 20 mg/mL of NHS–biotin was prepared in 1 mL DMSO. A volume of 0.13 µL and 0.1 µL of NHS–biotin was added to the Sh-EGFl-1 and rhEGF peptides, respectively. Both reaction mixtures were vortexed for a while and incubated in a thermoblock with 400 rpm shaking speed for 4 h at room temperature. Any unattached biotin molecules were sieved out using a PD-10 desalting column containing Sephadex G-25 medium (GE Life Sciences, Chicago, IL, USA). PBS buffer pH 7.4 was used as eluent to collect the conjugated peptides out from the column. The concentration of the biotin-conjugated peptides was determined using a NanoDrop spectrophotometer (Thermo Scientific, Waltham, MA, USA) and BCA assay.
Melanoma cells were seeded at 90% confluency in a 96-well plate and cultured in a humidified incubator at 37 °C, equilibrated with 5% CO2 until the next day. When all cells were attached to the surface, the plate was placed on ice for a while to reduce the protein metabolism rate, so the cells were not easily detached. The medium was removed and cells were washed twice using 200 µL of cold PBS buffer. A volume of 100 µL cold formalin was added to the cells to enhance cell attachment to the surface. The plate was placed on ice for the first 5 min, then continued for another 15 min incubation at room temperature. Cells were washed twice using 200 µL of cold PBS. A total of 100 µL of melanoma growth medium (MEM basal medium and 3% FBS) was added and cells were incubated at 37 °C for 30 min. The medium was discarded and replaced with 100 µL of treatment medium (MEM basal medium supplemented with 0.1% BSA, 200 mM HEPES buffer and Sh-EGFl-1 and rhEGF at concentrations of 10, 50 and 500 nM respectively). Cells were incubated at 37 °C for 1 h. The medium was discarded, and cells were washed twice using 200 µL cold PBS and 0.3 M NaCl. A total of 100 µL horseradish peroxidase (HRP) conjugated with NeutrAvidin solution (Thermo Scientific, Waltham, MA, USA) was added with a concentration of 1:10,000 onto cells and incubated at 37 °C for 1 h. […]

[2] = 50 nM, recovery from serum starvation

| Substance | cell morphology / attachment [1, 2] | Relative binding (human EGFR; 10 nM) [%] | Relative binding (human EGFR; 50 nM) | Relative binding (human EGFR; 500 nM) | optimum concentration for binding to EGFR (human EGFR) [nM] | cell morphology / attachment ([1]; 10 nM, recovery from serum starvation and after medium change at 48 h) |
| --- | --- | --- | --- | --- | --- | --- |
| H-MNSDSECPLSHDGYCLHDGVCMYIEALDKYACNCVVGYIGERCQYRDLKWWELR-OH (disulfide) [rhEGF, Recombinant human EGF purchased from Thermo Scientific, reference compound] | better recovery as the cells were elongated when they attached to the flask surface | 12 | 4% and 3.62% | 7.57% | 10 |  |
| H-NINECFSSPCENQGICQDEIDGYNCVCQPGFTGTHCESSMLNHVI-OH (disulfide) [Sh-EGFl-1, 45 amino acid EGF-like peptide from Stichopus horrens contig 498513, synthesized by Fmoc solid-phase peptide chemistry] | better recovery as the cells were elongated when they attached to the flask surface | 5 | -0.68% | ~10% and 10% | 500 | better recovery as the cells were elongated when they attached to the flask surface; also recorded: most of the cells to lose attachment from the flask except in the presence of 10 nM Sh-EGFl-1 |
